The molecules below were run against T1, human Plk4 kinase domain (aa 2-275) (Homo sapiens, UniProt O00444) (assay: Plk4 kinase assay (ADP-Glo)). Conditions: Table 1.
T1 construct: purified 6×His-tagged human Plk4 kinase domain (aa 2-275); 6xHis; made in house; host or cells: E. coli
T1 sequence (O00444 2-275): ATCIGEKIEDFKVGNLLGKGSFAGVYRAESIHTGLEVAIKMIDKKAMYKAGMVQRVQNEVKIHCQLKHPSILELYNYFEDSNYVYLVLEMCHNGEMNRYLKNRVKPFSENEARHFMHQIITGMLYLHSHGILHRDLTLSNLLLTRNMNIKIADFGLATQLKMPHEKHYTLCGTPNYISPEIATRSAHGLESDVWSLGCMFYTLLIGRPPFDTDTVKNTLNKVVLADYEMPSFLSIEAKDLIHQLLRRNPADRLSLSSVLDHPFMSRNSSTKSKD
Format: biochemical
How it was run: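 Enzyme at 2.5-10 nM final, pH 8.0, reacted 4-16 hours at 25° C; ADP generation read by ADP-Glo luminescence. Ki derived from IC50 by Cheng-Prusoff or, for tight binders, Copeland formalism.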
`COc1c(Nc2cc(C)[nH]n2)nc(Sc2ccc(S(=O)(=O)Cc3cccc([N+](=O)[O-])c3)cc2F)nc1N1CCOCC1` showed an IC50 of less than 1 µM. `CCOc1c(Nc2cc(C)[nH]n2)nc(Sc2ccc(NC(=O)C3CC3)cc2)nc1N1CCN(C(C)=O)CC1` gave an IC50 of 0.1 to 1 µM. Molecule `Cc1cc(Nc2nc(Sc3ccc([N+](=O)[O-])cc3)nc3c2CCC32CCN(CCN(C)C)CC2)n[nH]1` has an IC50 of less than 1 µM. Molecule `CCOc1c(Nc2cc(C)[nH]n2)nc(Sc2ccc(NC(=O)C3CC3)cc2)nc1N1CCNCC1` [drawing 126] has an IC50 of 0.1 to 1 µM. For `COc1c(Nc2cc(C)[nH]n2)nc(Sc2ccc(NC(C)=O)cc2)nc1N1CCN(CCN(C)C)CC1`, the IC50 was less than 1 µM. `COc1c(CS(=O)(=O)c2ccc(Sc3nc(Nc4cc(C)[nH]n4)c(OC)c(N4CCN(CCN(C)C)CC4)n3)cc2)cccc1[N+](=O)[O-]` gave an IC50 of less than 1 µM. `COc1c(Nc2cc(C)[nH]n2)nc(Sc2ccc(NC(C)=O)cc2)nc1N1CCN(CC(=O)N2CCCCC2)CC1` gave an IC50 of less than 1 µM. `COc1c(Nc2cc(C)[nH]n2)nc(Sc2ccc(NC(C)=O)cc2)nc1N1CC2CCC(C1)N2CCN1CCN(C)CC1` showed an IC50 of less than 1 µM. Molecule `CCOc1c(Nc2cc(C)[nH]n2)nc(Sc2ccc(NC(C)=O)cc2)nc1N(CC)CC` has an IC50 of 0.1 to 1 µM. `CC(=O)Nc1ccc(Sc2nc(Nc3cc(C)[nH]n3)c(C)c(N3CCC(N(C)C)CC3)n2)cc1` was tested, and the IC50 was less than 1 µM. `COc1c(Nc2cc(C)[nH]n2)nc(Sc2ccc(S(=O)(=O)Cc3cccc(C#N)c3)cc2)nc1N1CCN(CCN(C)C)CC1` gave an IC50 of less than 1 µM. `Cc1cc(Nc2nc(Sc3ccc(N)cc3)nc(N3CCCCC3)c2C)n[nH]1` showed an IC50 of less than 1 µM. Work on `COCC(=O)N1CCN(c2nc(Sc3ccc(NC(=O)C4CCCC4)cc3)nc(Nc3cc(C)[nH]n3)c2C)CC1` yielded an IC50 of less than 1 µM. In the case of `COc1c(Nc2cc(C)[nH]n2)nc(Sc2ccc(S(=O)(=O)C(F)c3cccc(C#N)c3F)cc2F)nc1N1CCOCC1` (stereo not shown), the IC50 is reported as less than 1 µM. In the case of `COc1c(Nc2cc(C)[nH]n2)nc(Sc2ccc(S(=O)(=O)C(C)(C)c3cccc([N+](=O)[O-])c3F)cc2F)nc1N1CC[C@H](NC(C)=O)C1`, the IC50 is reported as less than 1 µM. `CCN(CC)CCN1CCN(c2nc(Sc3ccc(NC(C)=O)cc3)nc(Nc3cc(C)[nH]n3)c2OC)CC1` gave an IC50 of less than 1 µM. `COc1c(Nc2cc(C)[nH]n2)nc(Sc2ccc(S(=O)(=O)Cc3cccc(F)c3F)cc2)nc1N1CCN(CCN(C)C)CC1` was tested, and the IC50 was less than 1 µM. For `COc1c(Nc2cc(C)[nH]n2)nc(Sc2ccc(NC(C)=O)cc2)nc1N1CCN(C(=N)NO)CC1`, the IC50 was less than 1 µM. For `COc1c(Nc2cc(C)[nH]n2)nc(Sc2ccc(S(=O)(=O)Cc3ccccc3)cc2)nc1N1CCN(C)CC1`, the IC50 was less than 1 µM. `COc1c(Nc2cc(C)[nH]n2)nc(Sc2ccc(NC(=O)C3CCCC3)cc2)nc1N1CCN(C(C)=O)CC1` was tested, and the IC50 was less than 1 µM. For `CCOc1c(Nc2cc(C)[nH]n2)nc(Sc2ccc(NC(=O)C3CC3)cc2)nc1N(CC)CC` [drawing 127], the IC50 was 0.1 to 1 µM. For `COc1c(Nc2cc(C)[nH]n2)nc(Sc2ccc(NC(=O)C3CCCC3)cc2)nc1N(C)C`, the IC50 was less than 1 µM. With `Cc1cc(Nc2nc(Sc3ccc(NC(=O)C4CC4)cc3)nc(N3CCN(C)CC3)c2CO)n[nH]1` the IC50 was 0.1 to 1 µM. `CCOc1c(Nc2cc(C)[nH]n2)nc(Sc2ccc(NC(C)=O)cc2)nc1N1CCN(C)CC1` gave an IC50 of 0.1 to 1 µM. `COc1c(Nc2cc(C)[nH]n2)nc(Sc2ccc(NC(C)=O)cc2)nc1N1CCOCC1` gave an IC50 of less than 1 µM. `CSc1nc(Nc2cc(C)[nH]n2)c(C)c(N2CCCCC2)n1` gave an IC50 of less than 1 µM. In the case of `COc1c(Nc2cc(C)[nH]n2)nc(Sc2ccc(S(=O)(=O)Cc3cccc([N+](=O)[O-])c3)cc2)nc1N1CCO[C@@H](C)C1`, the IC50 is reported as less than 1 µM. Work on `COc1c(Nc2cc(C)[nH]n2)nc(Sc2ccc(S(=O)(=O)Cc3ccc(F)cc3)cc2)nc1N1CCN(CCN(C)C)CC1` yielded an IC50 of less than 1 µM. Molecule `COCC(=O)N1CCN(c2nc(Sc3ccccc3)nc(Nc3cc(C)[nH]n3)c2C)CC1` has an IC50 of less than 1 µM. Work on `COc1c(Nc2cc(C)[nH]n2)nc(Sc2ccc(S(=O)(=O)Cc3ccccc3-c3ccccc3)cc2)nc1N1CCN(CCN(C)C)CC1` yielded an IC50 of less than 1 µM. With `COc1c(Nc2cc(C)[nH]n2)nc(Sc2ccc(S(=O)(=O)C(C)(C)c3cccc([N+](=O)[O-])c3F)cc2F)nc1N1CCNCC1` the IC50 was less than 1 µM. `COc1c(Nc2cc(C)[nH]n2)nc(Sc2ccc(S(=O)(=O)Cc3ccccc3)cc2)nc1N1CCOCC1` was tested, and the IC50 was less than 1 µM. `COc1c(Nc2cc(C)[nH]n2)nc(Sc2ccc(S(=O)(=O)Cc3ccccc3)cc2)nc1N1CCC(N2CCN(C)CC2)CC1` gave an IC50 of less than 1 µM. `CC(=O)Nc1ccc(Sc2nc(Nc3cc(C)[nH]n3)c(C)c(N3CCNCC3)n2)cc1` gave an IC50 of less than 1 µM. Molecule `COc1c(Nc2cc(C)[nH]n2)nc(Sc2ccc(NC(C)=O)cc2)nc1N1CCC(CC(N)=O)CC1` has an IC50 of less than 1 µM. In the case of `Cc1cc(Nc2nc(Sc3ccc(S(=O)(=O)Cc4ccccc4)cc3)nc(N3CCN(CCN(C)C)CC3)c2OC(C)C)n[nH]1`, the IC50 is reported as less than 1 µM. `COc1c(Nc2cc(C)[nH]n2)nc(Sc2ccc(S(=O)(=O)Cc3ncc[nH]3)cc2)nc1N1CCN(CCN(C)C)CC1` showed an IC50 of less than 1 µM. For `COc1c(C)nc(Sc2ccc(NC(=O)C3CC3)cc2)nc1Nc1cc(C)[nH]n1`, the IC50 was less than 1 µM. For `COc1c(Nc2cc(C)[nH]n2)nc(Sc2ccc(NC(C)=O)cc2)nc1N1CCN(CCN2CCCCCCC2)CC1`, the IC50 was less than 1 µM. With `COc1c(Nc2cc(C)[nH]n2)nc(Sc2ccc(NC(C)=O)cc2)nc1N1CCC(CCN2CCCCC2)CC1` the IC50 was 0.1 to 1 µM. `COc1c(Nc2cc(C)[nH]n2)nc(Sc2ccc(NC(C)=O)cc2)nc1N1CC=C(F)CC1` showed an IC50 of less than 1 µM. `COc1c(Nc2cc(C)[nH]n2)nc(Sc2ccc(NC(C)=O)cc2)nc1N1CCN(CCN2CCCC2)CC1` gave an IC50 of less than 1 µM. `CNc1nc(Sc2ccc(NC(=O)C3CC3)cc2)nc(Nc2cc(C)[nH]n2)c1OC` showed an IC50 of less than 1 µM. With `Cc1cc(Nc2nc(Sc3ccc(NC(=O)C4CC4)cc3)nc(N3CCN(C)C(C)C3)c2C)n[nH]1` (stereo not shown) the IC50 was less than 1 µM. `COc1c(Nc2cc(C)[nH]n2)nc(Sc2ccc(NC(C)=O)cc2)nc1N1CCN(CCN2CCCCCC2)CC1` showed an IC50 of less than 1 µM. `COc1c(Nc2cc(C)[nH]n2)nc(Sc2ccc(S(=O)(=O)C(C)(C)c3c(F)c(F)cc(F)c3F)cc2F)nc1N1CCC(N(C)C)CC1` showed an IC50 of less than 1 µM. In the case of `COc1c(Nc2cc(C)[nH]n2)nc(Sc2ccc(S(C)(=O)=O)cc2Cl)nc1N1CCC(CCN(C)C)CC1`, the IC50 is reported as less than 1 µM. `COc1c(Nc2cc(C)[nH]n2)nc(Sc2ccc(N)cc2)nc1N1CCN(CCN(C)C)CC1` showed an IC50 of 0.1 to 1 µM. Molecule `COc1c(Nc2cc(C)[nH]n2)nc(Sc2ccc(NC(C)=O)cc2)nc1N1CCN(CCNC(C)=O)CC1` has an IC50 of less than 1 µM. `CCOc1c(Nc2cc(C)[nH]n2)nc(Sc2ccc(S(=O)(=O)Cc3cc(F)ccc3F)cc2)nc1N1CCN(CCN(C)C)CC1` showed an IC50 of less than 1 µM. Work on `COCCNc1nc(Sc2ccc(NC(=O)C3CC3)cc2)nc(Nc2cc(C)[nH]n2)c1OC` yielded an IC50 of less than 1 µM. `Cc1cc(Nc2nc(Sc3ccc(N)cc3)nc(N3CCC(O)CC3)c2C)n[nH]1` was tested, and the IC50 was less than 1 µM. Molecule `COc1cccc(CS(=O)(=O)c2ccc(Sc3nc(Nc4cc(C)[nH]n4)c(OC)c(N4CCN(CCN(C)C)CC4)n3)cc2)c1` has an IC50 of less than 1 µM. `COc1c(Nc2cc(C)[nH]n2)nc(Sc2ccc(NC(C)=O)cc2)nc1N1CCN(CC(=O)N2CCOCC2)CC1` showed an IC50 of less than 1 µM. `CCOc1c(Nc2cc(C)[nH]n2)nc(Sc2ccc(NC(=O)C3CC3)cc2)nc1N1CCN(CC2CC2)CC1` was tested, and the IC50 was 0.1 to 1 µM. `COc1c(Nc2cc(C)[nH]n2)nc(Sc2ccc(S(=O)(=O)C(C)(C)c3c(F)c(F)cc(Cl)c3F)cc2F)nc1N1CCOCC1` showed an IC50 of less than 1 µM. `CC(=O)Nc1ccc(Sc2nc(Nc3cc(C)[nH]n3)c3c(n2)C2(CC3)CCN(C(=O)C(C)(C)C)CC2)cc1` showed an IC50 of less than 1 µM. Work on `COc1c(Nc2cc(C)[nH]n2)nc(Sc2ccc(S(=O)(=O)Cc3cccc(-c4ccccc4)c3)cc2)nc1N1CCN(CCN(C)C)CC1` yielded an IC50 of less than 1 µM.
